# Test results taken from ChEMBL document CHEMBL5614367, “Hydroxamic acid hybrids: Histone deacetylase inhibitors with anticancer therapeutic potency” (Eur J Med Chem, 2023).
# How the values were obtained:
# MCF7 [1] = assay: Antiproliferative activity against human MCF7 cells assessed as reduction in cell growth measured for 48 hrs by MTT assay; format: functional, cell-based; settings: MCF7, 48 h
# HepG2 [2] = assay: Antiproliferative activity against human HepG2 cells assessed as reduction in cell growth measured for 48 hrs by MTT assay; format: functional, cell-based; settings: HepG2, 48 h
# HCT-116 [3] = assay: Antiproliferative activity against human HCT-116 cells assessed as reduction in cell growth measured for 48 hrs by MTT assay; format: functional, cell-based; settings: HCT-116, 48 h
# A549 [4] = assay: Antiproliferative activity against human A549 cells assessed as reduction in cell growth measured for 48 hrs by MTT assay; format: functional, cell-based; settings: A549, 48 h
# Histone deacetylase 1 [5] = target: T1, Histone deacetylase 1 (Homo sapiens, UniProt Q13547); assay: Inhibition of human HDAC1 by colorimetric ELISA assay
# T1 sequence (Q13547 whole entry): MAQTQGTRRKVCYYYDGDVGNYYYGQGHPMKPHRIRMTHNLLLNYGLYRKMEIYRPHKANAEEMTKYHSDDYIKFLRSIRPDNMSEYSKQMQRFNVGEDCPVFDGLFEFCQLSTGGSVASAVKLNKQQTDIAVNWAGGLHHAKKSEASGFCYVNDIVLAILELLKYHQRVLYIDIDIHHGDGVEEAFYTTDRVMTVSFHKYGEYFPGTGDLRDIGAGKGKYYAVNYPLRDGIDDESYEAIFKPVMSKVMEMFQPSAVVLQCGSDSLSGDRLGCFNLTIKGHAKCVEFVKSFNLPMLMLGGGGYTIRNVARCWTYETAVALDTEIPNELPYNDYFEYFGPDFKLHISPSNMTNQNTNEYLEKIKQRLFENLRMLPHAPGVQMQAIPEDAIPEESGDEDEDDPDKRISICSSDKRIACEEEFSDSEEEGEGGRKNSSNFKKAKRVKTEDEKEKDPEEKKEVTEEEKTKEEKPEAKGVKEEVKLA
# Histone deacetylase 2 [6] = target: T2, Histone deacetylase 2 (Homo sapiens, UniProt Q92769); assay: Inhibition of human HDAC2 by colorimetric ELISA assay
# T2 sequence (Q92769 whole entry): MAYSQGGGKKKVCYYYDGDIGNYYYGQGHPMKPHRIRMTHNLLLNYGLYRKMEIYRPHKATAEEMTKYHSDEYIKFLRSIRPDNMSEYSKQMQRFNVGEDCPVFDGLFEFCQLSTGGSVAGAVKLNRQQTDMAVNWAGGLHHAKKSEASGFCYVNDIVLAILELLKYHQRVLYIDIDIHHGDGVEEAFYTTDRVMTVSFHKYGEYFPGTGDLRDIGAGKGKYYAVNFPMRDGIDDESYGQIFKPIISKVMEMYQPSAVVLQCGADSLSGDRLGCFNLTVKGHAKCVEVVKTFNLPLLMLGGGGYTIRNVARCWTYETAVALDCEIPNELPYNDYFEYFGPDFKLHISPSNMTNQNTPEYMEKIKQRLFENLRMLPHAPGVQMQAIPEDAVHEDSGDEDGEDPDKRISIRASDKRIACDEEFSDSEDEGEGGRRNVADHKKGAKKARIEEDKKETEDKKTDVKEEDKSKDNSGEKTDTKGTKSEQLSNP
# CAPAN-1 [7] = assay: Antitumor activity against human CAPAN-1 cells xenografted in mouse assessed as tumor growth inhibition at 50 mg/kg, ip relative to control; format: functional; settings: read-out: TGI
# CAPAN-1 [8] = assay: Antitumor activity against human CAPAN-1 cells xenografted in mouse assessed as tumor growth inhibition at 50 mg/kg, ip in presence of vorinostat relative to control; format: functional; settings: read-out: TGI
# [9] = target: T3, Protein deacetylase HDAC6 (Homo sapiens, UniProt Q9UBN7); assay: Inhibition of HDAC6 (unknown origin)
# T3 sequence (Q9UBN7 whole entry): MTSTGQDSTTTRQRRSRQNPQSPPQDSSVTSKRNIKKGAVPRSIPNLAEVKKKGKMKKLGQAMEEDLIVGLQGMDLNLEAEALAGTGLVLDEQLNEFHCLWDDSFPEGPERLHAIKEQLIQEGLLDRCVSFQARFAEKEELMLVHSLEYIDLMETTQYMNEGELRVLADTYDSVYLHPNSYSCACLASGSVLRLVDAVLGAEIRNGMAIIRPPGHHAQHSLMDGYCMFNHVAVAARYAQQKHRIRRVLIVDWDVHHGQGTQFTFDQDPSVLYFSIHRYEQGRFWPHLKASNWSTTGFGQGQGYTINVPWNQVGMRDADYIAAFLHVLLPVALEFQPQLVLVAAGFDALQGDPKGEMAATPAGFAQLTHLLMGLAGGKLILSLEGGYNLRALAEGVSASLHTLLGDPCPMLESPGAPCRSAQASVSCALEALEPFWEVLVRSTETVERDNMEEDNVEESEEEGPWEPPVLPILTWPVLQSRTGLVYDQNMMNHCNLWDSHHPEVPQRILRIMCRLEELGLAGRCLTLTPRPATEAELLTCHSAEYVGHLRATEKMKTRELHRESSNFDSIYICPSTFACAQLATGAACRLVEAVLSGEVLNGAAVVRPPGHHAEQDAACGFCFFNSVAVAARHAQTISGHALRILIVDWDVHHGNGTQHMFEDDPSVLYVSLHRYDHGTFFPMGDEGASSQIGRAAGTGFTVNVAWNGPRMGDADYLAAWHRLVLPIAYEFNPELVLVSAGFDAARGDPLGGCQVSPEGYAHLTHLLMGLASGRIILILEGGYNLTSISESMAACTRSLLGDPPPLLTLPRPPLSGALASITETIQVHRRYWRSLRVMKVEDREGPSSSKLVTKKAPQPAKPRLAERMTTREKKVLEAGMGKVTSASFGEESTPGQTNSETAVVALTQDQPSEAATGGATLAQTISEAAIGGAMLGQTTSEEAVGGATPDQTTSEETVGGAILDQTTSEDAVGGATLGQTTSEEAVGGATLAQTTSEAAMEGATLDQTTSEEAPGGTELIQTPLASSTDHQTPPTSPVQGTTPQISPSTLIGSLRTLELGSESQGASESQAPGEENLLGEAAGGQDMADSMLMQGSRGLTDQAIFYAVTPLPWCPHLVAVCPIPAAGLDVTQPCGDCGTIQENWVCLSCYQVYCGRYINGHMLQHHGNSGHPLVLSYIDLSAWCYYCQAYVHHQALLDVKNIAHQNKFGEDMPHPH
# Histone deacetylase 1 [10] = target: T1, Histone deacetylase 1; assay: Inhibition of HDAC1 (unknown origin)
# Histone deacetylase 2 [11] = target: T2, Histone deacetylase 2; assay: Inhibition of HDAC2 (unknown origin)
# Histone deacetylase 3 = Histone deacetylase 3 (Homo sapiens, UniProt O15379); assay: Inhibition of HDAC3 (unknown origin)
# Histone deacetylase 3, sequence (O15379 whole entry): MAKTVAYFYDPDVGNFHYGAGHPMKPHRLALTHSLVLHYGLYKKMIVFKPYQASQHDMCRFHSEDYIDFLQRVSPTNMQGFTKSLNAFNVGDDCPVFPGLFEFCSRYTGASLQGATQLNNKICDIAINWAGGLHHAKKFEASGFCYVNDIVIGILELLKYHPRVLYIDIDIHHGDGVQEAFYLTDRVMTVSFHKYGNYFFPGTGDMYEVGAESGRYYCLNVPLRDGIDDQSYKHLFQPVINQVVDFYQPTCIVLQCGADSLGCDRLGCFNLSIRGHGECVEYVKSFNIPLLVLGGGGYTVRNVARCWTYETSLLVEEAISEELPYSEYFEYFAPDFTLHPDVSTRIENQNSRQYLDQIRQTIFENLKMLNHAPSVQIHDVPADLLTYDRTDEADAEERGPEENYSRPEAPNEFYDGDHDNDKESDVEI
# [12] = Cytotoxicity against HEK293T cells; format: toxicity, cell-based, HEK-293T; settings: human
# [13] = Cytotoxicity against human PBMC cells; format: toxicity, cell-based
# Histone deacetylase 4 = Histone deacetylase 4 (Homo sapiens, UniProt P56524); assay: Inhibition of HDAC4 (unknown origin)
# Histone deacetylase 4, sequence (P56524 whole entry): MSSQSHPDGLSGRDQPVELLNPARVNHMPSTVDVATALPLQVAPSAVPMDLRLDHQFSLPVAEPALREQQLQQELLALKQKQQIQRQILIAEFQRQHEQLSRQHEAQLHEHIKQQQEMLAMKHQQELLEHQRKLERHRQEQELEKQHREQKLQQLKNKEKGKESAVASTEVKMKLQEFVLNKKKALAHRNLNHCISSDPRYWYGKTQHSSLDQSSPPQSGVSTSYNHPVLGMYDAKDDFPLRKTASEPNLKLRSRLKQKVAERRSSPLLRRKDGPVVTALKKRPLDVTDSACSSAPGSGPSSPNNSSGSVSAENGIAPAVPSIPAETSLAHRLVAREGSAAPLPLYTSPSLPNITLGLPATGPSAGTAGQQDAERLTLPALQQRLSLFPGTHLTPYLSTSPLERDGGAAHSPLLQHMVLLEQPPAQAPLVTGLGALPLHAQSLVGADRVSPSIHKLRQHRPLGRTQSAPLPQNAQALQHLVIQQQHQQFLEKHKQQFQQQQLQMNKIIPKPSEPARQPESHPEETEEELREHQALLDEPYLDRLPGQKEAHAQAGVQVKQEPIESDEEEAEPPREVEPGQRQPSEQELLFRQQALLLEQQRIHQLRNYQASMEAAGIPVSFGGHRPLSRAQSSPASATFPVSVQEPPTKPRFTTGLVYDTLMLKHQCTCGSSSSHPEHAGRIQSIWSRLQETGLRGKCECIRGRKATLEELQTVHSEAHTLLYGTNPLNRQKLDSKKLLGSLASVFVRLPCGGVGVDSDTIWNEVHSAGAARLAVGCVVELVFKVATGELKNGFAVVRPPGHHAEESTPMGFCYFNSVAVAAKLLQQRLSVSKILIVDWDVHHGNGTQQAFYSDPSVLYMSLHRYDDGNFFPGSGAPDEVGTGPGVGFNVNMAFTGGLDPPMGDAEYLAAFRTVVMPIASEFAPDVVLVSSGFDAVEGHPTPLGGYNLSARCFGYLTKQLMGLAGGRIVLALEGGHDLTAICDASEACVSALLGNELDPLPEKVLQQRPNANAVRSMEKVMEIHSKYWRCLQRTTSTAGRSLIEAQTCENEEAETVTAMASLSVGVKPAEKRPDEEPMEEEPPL
# [14] = Antitumor activity against mouse WEHI-3 cells implanted in mouse assessed as reduction in tumor growth at 25 mg/kg, ip relative to control; format: functional; design: scale not given: the % may be the effect or the level left
# [15] = Antitumor activity against mouse WEHI-3 cells implanted in mouse assessed as survival time at 25 mg/kg, ip (reference value: 16 day); format: functional
# [16] = Antiproliferative activity against human MCF-10A cells assessed as reduction in cell viability incubated for 48 hrs by MTT assay; format: toxicity, cell-based
# [17] = Antiproliferative activity against human MCF-10F cells assessed as reduction in cell viability incubated for 48 hrs by MTT assay; format: toxicity, cell-based
# [18] = Antiproliferative activity against human BEAS-2B cells assessed as reduction in cell viability incubated for 48 hrs by MTT assay; format: toxicity, cell-based
# Histone deacetylase 2 [19] = target: T2, Histone deacetylase 2; assay: Inhibition of HDAC2 (unknown origin) using Boc-Lys-(Ac)-AMC as substrate incubated for 60 mins by fluorescence based analysis
# MDA-MB-231 = assay: Antitumor activity against human MDA-MB-231 cells in nude mouse assessed as tumor growth inhibition at 20 mg/kg, ip administered once daily for 30 days relative to control; format: functional; settings: MDA-MB-231, 720 h, time 30 day, read-out: TGI
# U-87 MG [20] = assay: Antiproliferative activity against human U87 cells assessed as reduction in cell growth incubated for 72 hrs by MTT assay; format: functional, cell-based, U-87MG ATCC
# U-251 = assay: Antiproliferative activity against human U-251 cells assessed as reduction in cell growth incubated for 72 hrs by MTT assay; format: functional, cell-based; settings: U-251, 72 h
# CAPAN-1 [21] = assay: Antiproliferative activity against human CAPAN-1 cells; format: functional, cell-based
# CAPAN-1 [22] = assay: Potency index, ratio of vorinostat IC50 to test compound IC50 for antiproliferative activity against human CAPAN-1 cells; format: functional
# [23] = target: Bromodomain-containing protein 4 (Homo sapiens, UniProt O60885); assay: Inhibition of BRD4 (unknown origin)
# CAPAN-1 [24] = assay: Antitumor activity against human CAPAN-1 cells xenografted in mouse assessed as tumor growth inhibition at 100 mg/kg, ip relative to control; format: functional; settings: read-out: TGI
# HL-60 = assay: Antiproliferative activity against human HL-60 cells assessed as cell growth inhibition by MTT assay; format: functional, cell-based
# U-937 = assay: Antiproliferative activity against human U-937 cells assessed as cell growth inhibition by MTT assay; format: functional, cell-based
# Histone deacetylase 1 [25] = target: T1, Histone deacetylase 1; assay: Inhibition of HDAC1 (unknown origin) using 6-carboxyfluorescein peptide as substrate incubated for 18 hrs by fluorescence based assay
# Histone deacetylase 2 [26] = target: T2, Histone deacetylase 2; assay: Inhibition of HDAC2 (unknown origin) using 6-carboxyfluorescein peptide as substrate incubated for 18 hrs by fluorescence based assay
# [27] = target: T3, Protein deacetylase HDAC6; assay: Inhibition of HDAC6 (unknown origin) using 6-carboxyfluorescein peptide as substrate incubated for 18 hrs by fluorescence based assay
# A549 [28] = assay: Antiproliferative activity against human A549 cells assessed as inhibition of cell growth measured after 72 hrs by MTT assay; format: functional, cell-based; settings: A549, 72 h, pooled result: one value given for 8 cell lines, strains, targets or settings
# [29] = Metabolic stability in human liver microsomes assessed as half life incubated for 60 mins in presence of NADPH by LC-MS/MS analysis; format: ADME, Microsome
# [30] = Metabolic stability in mouse liver microsomes assessed as half life incubated for 60 mins in presence of NADPH by LC-MS/MS analysis; format: ADME, Microsome
# [31] = Metabolic stability in rat liver microsomes assessed as half life incubated for 60 mins in presence of NADPH by LC-MS/MS analysis; format: ADME, Microsome
# [32] = Oral bioavailability in female […] at 10 mg/kg; format: ADME, organism-based; settings: in vivo
# U-87 MG [33] = assay: Antitumor activity against human U87 cells xenografted in mouse assessed as tumor growth inhibition at 20 mg/kg, po relative to control; format: functional, U-87MG ATCC; settings: read-out: TGI
# [34] = target: T3, Protein deacetylase HDAC6; assay: Inhibition of HDAC6 (unknown origin) using ZMAL (Z-Lys(Ac)-AMC as fluorogenic substrate pre-incubated for 15 mins followed by susbtrate addition and measured for 45 mins by fluorescence based analysis
# HT-29 = assay: Antiproliferative activity against human HT-29 cells assessed as reduction in cell growth by MTT assay; format: functional, cell-based
# SH-SY5Y = assay: Antiproliferative activity against human SH-SY5Y cells by MTT assay; format: functional, cell-based
# HepG2 [35] = assay: Antiproliferative activity against human HepG2 cells measured after 24 hrs by MTT assay; format: functional, cell-based; settings: HepG2, 24 h
# HCT-116 [36] = assay: Antiproliferative activity against human HCT-116 cells measured after 24 hrs by MTT assay; format: functional, cell-based; settings: HCT-116, 24 h
# MCF7 [37] = assay: Antiproliferative activity against human MCF7 cells measured after 24 hrs by MTT assay; format: functional, cell-based; settings: MCF7, 24 h
# HeLa = assay: Antiproliferative activity against human HeLa cells measured after 24 hrs by MTT assay; format: functional, cell-based
# Histone deacetylase 1 [38] = target: T1, Histone deacetylase 1; assay: Inhibition of human HDAC1 incubated for 30 mins by ELISA; settings: pooled result: one value given for 5 cell lines, strains, targets or settings
# Ehrlich [39] = assay: Antitumor activity against mouse EAC cells implanted in mouse assessed as increase in life span at 0.5 mg/kg, ip relative to control; format: functional
# Ehrlich [40] = assay: Antitumor activity against mouse EAC cells implanted in mouse assessed as reduction in tumor volume at 0.5 mg/kg, ip relative to control; format: functional; design: scale not given: the % may be the effect or the level left
smiles,measurement,setting,value
COc1cc(/C=C/C(=O)c2ccc(OCCCCCC(=O)NO)cc2)cc(OC)c1OC,IC50,MCF7 [1],536 nM
same,IC50,HepG2 [2],536 nM
same,IC50,HCT-116 [3],536 nM
same,IC50,A549 [4],536 nM
same,IC50,Histone deacetylase 1 [5],60 nM
same,IC50,Histone deacetylase 2 [6],60 nM
Cc1sc2c(c1C)C(c1ccc(Cl)cc1)=N[C@@H](CC(=O)OC(C)(C)C)c1nnc(C)n1-2,inhibition in vivo at 50 mg/kg,CAPAN-1 [7],41%
same,inhibition in vivo at 50 mg/kg,CAPAN-1 [8],57%
CNCCOc1ccc(-c2cc(=O)c3cc(OCCCCCC(=O)NO)cc(O)c3o2)cc1,IC50,[9],30 nM
same,IC50,Histone deacetylase 1 [10],30 nM
same,IC50,Histone deacetylase 2 [11],30 nM
same,IC50,Histone deacetylase 3,30 nM
same,IC50,[12],9490 nM
same,IC50,[13],11600 nM
same,IC50,Histone deacetylase 4,30 nM
same,Activity,[14],~65%
same,Survival,[15],27 days
O=C(CCCCCC(=O)N(Cc1ccc(Br)s1)c1ccc(OCCN2CCOCC2)cc1)NO,IC50 at 48 h,[16],> 100000 nM
same,IC50 at 48 h,[17],> 100000 nM
same,IC50 at 48 h,[18],> 100000 nM
same,IC50,Histone deacetylase 2 [19],3.22 nM
same,inhibition in vivo at 20 mg/kg,MDA-MB-231,~95%
O=C(CCCCCNC(=O)c1cc(O)c2c(c1)C(=O)c1cccc(O)c1C2=O)NO,IC50,U-87 MG [20],5500 nM
same,IC50,U-251,5500 nM
CC1=C(C)C2C(c3ccc(Cl)cc3)=N[C@@H](CC(=O)Nc3ccc(C(=O)NO)cc3)c3nnc(C)n3C2S1 (stereo partly specified),IC50,Histone deacetylase 1 [10],21 nM
same,IC50,CAPAN-1 [21],150 nM
same,Ratio IC50,CAPAN-1 [22],36
same,IC50,[23],11 nM
same,inhibition in vivo at 50 mg/kg,CAPAN-1 [7],69%
same,inhibition in vivo at 100 mg/kg,CAPAN-1 [24],87.7%
O=C(O)CCCc1ccc(N(CCCl)CCCl)cc1 [CHLORAMBUCIL],IC50,HL-60,21100 nM
same,IC50,U-937,37700 nM
COc1cc(/C=C/C(=O)CC(=O)/C=C/c2ccc(/C=C/C(=O)NO)cc2)ccc1O,IC50,Histone deacetylase 1 [25],0.38 nM
same,IC50,Histone deacetylase 2 [26],0.38 nM
same,IC50,[27],0.38 nM
same,IC50,A549 [28],5330 nM
same,half-life,[29],91.6 min
same,half-life,[30],32.7 min
same,half-life,[31],40.7 min
same,bioavailability,[32],40.2%
same,inhibition in vivo at 20 mg/kg,U-87 MG [33],52.1%
Cc1nc(C)c(C(=O)Nc2cccc(C(=O)NO)c2)nc1C,IC50,[34],169 nM
same,IC50,HT-29,4990 nM
same,IC50,SH-SY5Y,7630 nM
CCCC(CCC)C(=O)N[C@@H](Cc1ccccc1)C(=O)NO,IC50,HepG2 [35],9620 nM
same,IC50,HCT-116 [36],9620 nM
same,IC50,MCF7 [37],9620 nM
same,IC50,HeLa,9620 nM
same,IC50,Histone deacetylase 1 [38],2.86 nM
same,ILS at 0.5 mg/kg,Ehrlich [39],131%
same,Activity,Ehrlich [40],~36%
